Measured values published in patent publication US9790169B2, “IDO inhibitors” (BRISTOL-MYERS SQUIBB COMPANY, priority 2015, dated 2017).

Target: human IDO1 (Homo sapiens, UniProt P14902)
Test: Assessment of human IDO-1 inhibitory activity in Hela cells (Interferon-gamma stimulated HeLa cells, Ehrlich reagent, absorbance 490 nm)
Format: cell-based
Design: endogenous in cells; host or cells: HeLa cells stimulated with interferon-gamma
Conditions: Hela Human IDO-1 cellular assay
Method in brief: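 HeLa cells pre-incubated with compound 1 h at 37 °C, then stimulated with human IFN-γ (10 ng/ml final) or murine IFN-γ (5 ng/ml final) for 18 h. Kynurenine read with Ehrlich reagent at 490 nm after TCA (3%) and 50 °C treatment; IC50 normalized to unstimulated (100%) and IFN-γ-only (0%) wells.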

human IDO1, sequence (P14902 whole entry): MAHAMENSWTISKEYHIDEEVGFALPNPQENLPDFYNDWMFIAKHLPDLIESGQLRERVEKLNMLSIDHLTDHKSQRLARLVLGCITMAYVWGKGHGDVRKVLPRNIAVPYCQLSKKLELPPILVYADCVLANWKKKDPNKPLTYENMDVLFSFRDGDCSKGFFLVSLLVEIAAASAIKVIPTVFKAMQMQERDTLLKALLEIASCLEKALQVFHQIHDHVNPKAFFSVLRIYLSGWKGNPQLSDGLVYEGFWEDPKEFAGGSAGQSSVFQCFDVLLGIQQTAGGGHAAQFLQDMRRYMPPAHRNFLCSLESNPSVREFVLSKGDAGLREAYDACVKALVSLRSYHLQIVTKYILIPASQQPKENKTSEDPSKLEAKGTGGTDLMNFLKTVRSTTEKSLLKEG

| IC50 [nM] | Molecule |
| --- | --- |
| < 5 | COCC(CC(=O)O)c1ccc(N(C)C2CCOCC2)c(Nc2ccc(C#N)cn2)c1 (single isomer, unassigned) [Example 874, 3-(3-((5-cyanopyridin-2-yl)amino)-4-(methyl (tetrahydro-2H-pyran-4-yl)amino)phenyl)-4-methoxybutanoic acid] |
| < 50 | CCCN(c1ccc([C@H](CC)CC(=O)O)cc1NC(=O)Nc1ccc(C#N)cc1)C1CCOCC1 (single isomer, unassigned) [Example 556] |
| < 5 | CCN(c1ccc(C(COC)CC(=O)O)cc1Nc1ccc(Cl)cc1)C1CCS(=O)(=O)CC1 (single isomer, unassigned) [Example 170, 3-(3-((4-chlorophenyl)amino)-4-((1,1-dioxidotetrahydro-2H-thiopyran-4-yl)(ethyl)amino)phenyl)-4-methoxybutanoic acid] |
| < 5 | CCN(c1ccc(C(CC(=O)O)C2CC2)cc1Nc1ccc(F)cc1)C1CCS(=O)(=O)CC1 (single isomer, unassigned) [Example 343, 3-cyclopropyl-3-(4-((1,1-dioxidotetrahydro-2H-thiopyran-4-yl)(ethyl)amino)-3-((4-fluorophenyl)amino)phenyl) propanoic acid] |
| < 5 | CCC(CC(=O)O)c1ccc(N2CCOC[C@H]2C(C)C)c(Nc2ccc(C#N)cc2)c1 (single isomer, unassigned) [Example 887] |
| < 50 | CCOc1ncc(Nc2cc([C@H](CC)Cc3nnc[nH]3)ccc2N(CC)C2CCOCC2)cn1 [Example 1338, (R)-4-(1-(4H-1,2,4-Triazol-3-yl)butan-2-yl)-N2-(2-ethoxypyrimidin-5-yl)-N1-ethyl-N1-(tetrahydro-2H-pyran-4-yl)benzene-1,2-diamine] |
| > 50 | CCC(CC(=O)O)c1ccc(N(C)C2CCOCC2)c(Nc2cnc(OC)nc2)c1 (single isomer, unassigned) [Example 871, 3-(3-((2-methoxy-pyrimidin-5-yl)amino)-4-(methyl(tetra-hydro-2H-pyran-4-yl)amino)phenyl) pentanoic acid] |
| > 50 | COCC(CC(=O)O)c1ccc(N(C)C2CCOCC2)c(NC(=O)Nc2ccc(Cl)cc2F)c1 (single isomer, unassigned) [Example 879, 3-(3-(3-(4-Chloro-2-fluorophenyl)ureido)-4-(methyl(tetrahydro-2H-pyran-4-yl)amino)phenyl)-4-methoxybutanoic acid] |
| < 50 | CCC(CC(=O)O)c1ccc(N(CC)C2CCCOC2)c(Nc2cnc(OC)nc2)c1 (single isomer, unassigned) [Example 68, 3-(4-(ethyl(tetrahydro-2H-pyran-3-yl)amino)-3-((2-methoxypyrimidin-5-yl)amino)phenyl)pentanoic acid] |
| < 50 | CCN(c1ccc(C(CC)(CC)CC(=O)O)cc1NC(=O)Nc1ccc(C#N)cc1)C1CCOCC1 [Example 31, 3-(3-(3-(4-cyanophenyl)ureido)-4-(ethyl(tetrahydro-2H-pyran-4-yl)amino)phenyl)-3-ethylpentanoic acid] |
| < 5 | CCN(c1ccc(C(C)(C)CC(=O)O)cc1Nc1ccc2c(c1)OC(F)(F)O2)C1CCS(=O)(=O)CC1 [Example 179, 3-(3-((2,2-difluorobenzo[d][1,3]dioxol-5-yl)amino)-4-((1,1-dioxidotetrahydro-2H-thiopyran-4-yl)(ethyl)amino)phenyl)-3-methylbutanoic acid] |
| < 50 | CCN(c1ccc([C@@H](COC)CC(=O)O)cc1Nc1ccc(C#N)c(OCC(F)F)c1)C1CCOCC1 (single isomer, unassigned) [Example 371] |
| < 50 | CCOc1ccc(Nc2cc(C(C)CC(=O)O)ccc2N(CC)C2CCOCC2)nn1 (single isomer, unassigned) [Example 631, 3-(3-((6-ethoxypyridazin-3-yl)amino)-4-(ethyl (tetrahydro-2H-pyran-4-yl)amino)phenyl)butanoic acid] |
| > 50 | CCC1COCCN1c1ccc([C@@H](COC)CC(=O)O)cc1Nc1ccc(F)cn1 (single isomer, unassigned) [Example 1302] |
| < 5 | CCCN(c1ccc([C@@H](CC)CC(=O)O)cc1Nc1ccc(OC)nc1)C1CCOCC1 (single isomer, unassigned) [Example 542] |
| < 5 | CCC(CC(=O)O)c1ccc(N2C[C@@H]3C[C@H]2CN3C(=O)OC(C)(C)C)c(Nc2ccccc2)c1 (single isomer, unassigned) [Example 444] |
| < 50 | COCC(CC(=O)O)c1ccc(N2CCOC[C@H]2C(C)C)c(Nc2ccc(Cl)cc2)c1 (single isomer, unassigned) [Example 910] |
| < 5 | CCCN(c1ccc([C@H](CC)CC(=O)O)cc1Nc1ccc2c(c1)OC(F)(F)O2)C1CCOCC1 (single isomer, unassigned) [Example 550] |
| > 50 | CC[C@H](CC(=O)O)c1ccc(N(CC)C2CCOCC2)c(Nc2ccc(N(C)C)nc2)c1 (single isomer, unassigned) [Example 506] |

| IC50 [nM] | Molecule |
| --- | --- |
| > 50 | Cc1ccc(NC(=O)Nc2cc(C(CC(=O)O)C3CC3)ccc2N2C[C@@H](C)O[C@@H](C)C2)cc1 (single isomer, unassigned) [Example 251 Enantiomer 1] |
| < 50 | CCOc1ncc(Nc2cc(C(COC)CC(=O)O)ccc2N2CCC(c3ccccc3)CC2)cn1 (single isomer, unassigned) [Example 1351, 3-(3-((2-ethoxypyrimidin-5-yl)amino)-4-(4-phenylpiperidin-1-yl)phenyl)-4-methoxybutanoic acid] |
| < 5 | CCC(CC(=O)O)c1ccc(N(CC)C2CCOC2)c(NC(=O)Nc2ccc(Cl)cc2F)c1 (single isomer, unassigned) [Example 946 D2, 3-(3-(3-(4-Chloro-2-fluorophenyl)ureido)-4-(ethyl(tetrahydrofuran-3-yl)amino)phenyl)pentanoic acid] |
| < 5 | CCCN(c1ccc([C@H](CC)CC(=O)O)cc1NC(=O)Nc1ccc(Cl)cc1F)C1CCOCC1 (single isomer, unassigned) [Example 555] |
| < 5 | CCN(c1ccc(C(CC)(CC)CC(=O)O)cc1Nc1ccc(C#N)cc1)C1CCOCC1 [Example 27, 3-(3-((4-cyanophenyl)amino)-4-(ethyl(tetrahydro-2H-pyran-4-yl)amino)phenyl)-3-ethylpentanoic acid] |
| < 5 | (R)-3-(3-((4-chlorophenyl)amino)-4-((1,1-dioxidotetrahydro-2H- thiopyran-4-yl)(ethyl)amino) phenyl)-4-isopropoxybutanoic acid [Example 330] |
| < 50 | CCN(c1ccc(C(CC)(CC)CC(=O)O)cc1Nc1cnc(OC)nc1)C1CCOCC1 [Example 28, 3-ethyl-3-(4-(ethyl(tetrahydro-2H-pyran-4-yl)amino)-3-((2-methoxypyrimidin-5-yl)amino)phenyl)pentanoic acid] |
| < 5 | CCN(c1cc(F)c([C@@H](COC)CC(=O)O)cc1Nc1ccc(C#N)cc1)C1CCOCC1 (single isomer, unassigned) [Example 843, 3-(5-((4-Cyanophenyl)amino)-4-(ethyl(tetrahydro-2H-pyran-4-yl)amino)-2-fluorophenyl)-4-methoxybutanoic acid] |
| < 50 | CCCN(c1ccc([C@H](COC)CC(=O)O)cc1Nc1ccc(OC)nc1)C1CCOCC1 (single isomer, unassigned) [Example 575] |
| > 50 | CCOc1ncc(Nc2cc([C@H](COC)CC(=O)O)ccc2N2CCOCC2CC)cn1 (single isomer, unassigned) [Example 1291] |
| > 50 | CCN(c1ccc([C@H](COC)CC(=O)O)cc1NC(=O)Nc1ccc(Cl)cc1Cl)C1CCOCC1 (single isomer, unassigned) [Example 441] |
| < 5 | CCOc1ccc(Nc2cc([C@@H](CC)CC(=O)O)ccc2N(CC)C2CCOCC2)cn1 (single isomer, unassigned) [Example 466] |
| > 50 | CCC(CC(=O)O)c1ccc(N2CCN(C(=O)OC)CC2)c(Nc2ccc(C#N)cc2)c1 (single isomer, unassigned) [Example 668 Enantiomer 1, 3-(3-((4-Cyanophenyl)amino)-4-(4-(methoxycarbonyl)piperazin-1-yl)phenyl)pentanoic acid] |
| < 5 | CCC(CC(=O)O)c1ccc(N2CC(O)(c3ccc(F)cc3)C2)c(Nc2ccc(Cl)cc2)c1 (single isomer, unassigned) [Example 1253 E2, 3-(3-((4-Chlorophenyl)amino)-4-(3-(4-fluorophenyl)-3-hydroxyazetidin-1-yl)phenyl)pentanoic acid] |
| > 50 | CCOc1ncc(Nc2cc(C(C)(C)CC(=O)O)ccc2N(CCOC)C2CCOCC2)cn1 [Example 17, 3-(3-((2-ethoxypyrimidin-5-yl)amino)-4-((2-methoxyethyl)(tetrahydro-2H-pyran-4-yl)amino)phenyl)-3-methylbutanoic acid] |
| > 50 | CCOc1ncc(Nc2cc([C@@H](CC)CC(C)(C)O)ccc2N(CC)C2CCOCC2)cn1 (single isomer, unassigned) [Example 1345] |
| < 50 | CCN(c1ccc([C@@H](COC)CC(=O)O)cc1Nc1ccc(C#N)c(C)n1)C1CCOCC1 (single isomer, unassigned) [Example 382] |
| < 50 | CCN(c1ccc([C@@H](COC)CC(=O)O)cc1Nc1ccc(F)cc1F)C1CCOCC1 (single isomer, unassigned) [Example 365] |
| < 5 | CCN(c1ccc([C@@H](COC)CC(=O)O)cc1Nc1ccc(C(F)(F)F)cc1)C1CCOCC1 (single isomer, unassigned) [Example 364] |

| Molecule | IC50 [nM] |
| --- | --- |
| CCN(c1ccc([C@@H](COC)CC(=O)O)cc1Nc1ccc(C#N)c(C(F)(F)F)c1)C1CCOCC1 (single isomer, unassigned) [Example 383] | > 50 |
| CCN(c1ccc([C@@H](COC)CC(=O)O)cc1Nc1ccc(C#N)c(Cl)c1)C1CCOCC1 (single isomer, unassigned) [Example 381] | < 50 |
